Target: T1, hTRPM8 (Homo sapiens, UniProt Q7Z2W7)
T1 construct: expressed in transfected cells
Experiment: Assay on TRPM8 modulators: calcium imaging (Fluo-4, Flexstation) in HEK293 cell line stably expressing hTRPM8
Format: cell-based
Settings: HEK293 cells stably expressing hTRPM8, calcium influx, sigmoidal dose-response fit; read-out: EC50
Protocol: A HEK293 cell line stably expressing hTRPM8 was generated according to Klein et al., (Chem. Senses 36: 649-658, 2011) and receptor activation was monitored by calcium imaging in a Flexstation. For Ca-imaging assays of TRPM8 channel activation, cells were seeded on day 0 at a density of 12000 cells per well in Dulbecco's modified Eagle medium (DMEM) containing 9% foetal bovine serum in black, clear bottom 96-well plates that had been coated with 0.001% polyethyleneimine (molecular weight=60 000, Acros Organics). On day 2, agonists were evaluated via calcium imaging using Fluo-4. Briefly, growth medium was discarded, and the cells were incubated in the dark for 1 h at 37° C. in 50 μL loading buffer consisting of 2.7 μM Fluo-4 AM (Invitrogen) and […] probenecid (Sigma-Aldrich) in DMEM (without serum). After incubation, the plates were washed five times with 100 μL of assay buffer (in mM: 130 NaCl, 5 KCl, 10 HEPES, 2 CaCl2, and 10 glucose, pH7.4.) and further incubated in the dark at room temperature for 30 min. The cells were then washed five times with 100 μL assay buffer and then calcium influx to serial dilutions of inventive compounds were measured in a Flexstation 3 (Molecular Devices). Receptor activation was initiated following addition of 20 μl of a 10-fold concentrated ligand stock solution, which is also prepared in assay buffer. Fluorescence was continuously monitored for 15 seconds prior to ligand addition and for 105 seconds after ligand addition, for a total of 120 seconds. Maximal receptor activation in relation to solvent control and relative to 31.6 μM menthol is determined. Data from serial dilutions were processed with a KNIME workflow to fit a sigmoidal dose-response curve and to extrapolate EC50 values.

T1 sequence (Q7Z2W7 whole entry): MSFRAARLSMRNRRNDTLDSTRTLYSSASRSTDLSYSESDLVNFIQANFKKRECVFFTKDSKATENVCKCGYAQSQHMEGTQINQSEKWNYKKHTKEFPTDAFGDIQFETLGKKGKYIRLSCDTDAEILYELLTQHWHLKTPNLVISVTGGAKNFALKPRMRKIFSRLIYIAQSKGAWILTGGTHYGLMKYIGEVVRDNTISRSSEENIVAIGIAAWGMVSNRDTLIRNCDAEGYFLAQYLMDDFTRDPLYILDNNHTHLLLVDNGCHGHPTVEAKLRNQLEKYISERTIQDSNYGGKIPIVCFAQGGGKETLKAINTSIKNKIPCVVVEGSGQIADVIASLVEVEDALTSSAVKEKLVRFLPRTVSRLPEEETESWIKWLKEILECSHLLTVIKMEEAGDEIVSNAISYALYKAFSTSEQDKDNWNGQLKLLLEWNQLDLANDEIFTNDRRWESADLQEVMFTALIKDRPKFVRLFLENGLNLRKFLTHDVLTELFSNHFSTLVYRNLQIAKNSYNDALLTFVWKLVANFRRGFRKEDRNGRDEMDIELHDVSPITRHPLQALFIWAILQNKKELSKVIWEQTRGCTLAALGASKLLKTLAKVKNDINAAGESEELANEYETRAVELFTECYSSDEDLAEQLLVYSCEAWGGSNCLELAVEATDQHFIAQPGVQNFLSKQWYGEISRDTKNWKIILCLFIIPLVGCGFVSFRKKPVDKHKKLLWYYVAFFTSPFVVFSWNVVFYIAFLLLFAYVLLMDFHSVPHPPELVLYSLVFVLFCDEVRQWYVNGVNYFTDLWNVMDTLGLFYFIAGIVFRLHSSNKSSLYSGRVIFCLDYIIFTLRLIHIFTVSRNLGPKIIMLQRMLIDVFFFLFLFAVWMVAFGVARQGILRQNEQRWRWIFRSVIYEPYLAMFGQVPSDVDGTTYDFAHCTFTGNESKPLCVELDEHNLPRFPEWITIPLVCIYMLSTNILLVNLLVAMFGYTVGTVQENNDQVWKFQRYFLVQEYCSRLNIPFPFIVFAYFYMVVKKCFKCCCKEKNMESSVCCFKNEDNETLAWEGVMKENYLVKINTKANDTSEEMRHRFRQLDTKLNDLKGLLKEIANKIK

Row | EC50 [nM] | Structure (SMILES)
1 | 50 to 300 | CCN1OC(C)(C)[C@@H]2C[C@](C)(CC=C(C)C)C[C@H](C)[C@H]21 (racemic) [Compound 53, rac-(3aR,5R,7S,7aR)-1-ethyl-3,3,5,7-tetramethyl-5-(3-methylbut-2-en-1-yl)octahydrobenzo[c]isoxazole]
2 | 50 to 300 | Cc1ccc(C#N)cc1[C@H]1C[C@@H]2[C@@H]([C@@H](C)C1)N(C)OC2(C)C (racemic) [Compound 136, rac-4-methyl-3-((3aR,5R,7S,7aR)-1,3,3,7-tetramethyloctahydrobenzo[c]isoxazol-5-yl)benzonitrile]
3 | 300 to 1000 | Cc1cc(C)cc([C@@]2(C)C[C@@H]3[C@@H]([C@@H](C)C2)N(C(C)C)OC3(C)C)c1 (racemic) [Compound 88, rac-(3aR,5R,7S,7aR)-5-(3,5-dimethylphenyl)-1-isopropyl-3,3,5,7-tetramethyloctahydrobenzo[c]isoxazole]
4 | 50 to 300 | Cc1ccc([C@@]2(C)C[C@@H]3[C@@H]([C@@H](C)C2)N(C)OC3(C)C)cc1 (racemic) [Compound 47, rac-(3aR,5R,7S,7aR)-1,3,3,5,7-pentamethyl-5-(p-tolyl)octahydrobenzo[c]isoxazole]
5 | < 50 | CC(C)N1OC(C)(C)[C@@H]2C[C@](C)(c3ccc(F)cc3)C[C@H](C)[C@H]21 (racemic) [Compound 103, rac-(3aR,5R,7S,7aR)-5-(4-fluorophenyl)-1-isopropyl-3,3,5,7-tetramethyloctahydrobenzo[c]isoxazole]
6 | 1000 to 35000 | CC(C)CCC1CC(C)C2C(C1)C(C)(C)OCN2C (stereo not shown) [Compound 22, 6-isopentyl-1,4,4,8-tetramethyloctahydro-2H-benzo[d][1,3]oxazine]
7 | 50 to 300 | C[C@H]1C[C@@H](c2ccccc2)C[C@@H]2[C@@H]1N(C)OC2(C)C (racemic) [Compound 52, rac-(3aR,5R,7S,7aR)-1,3,3,7-tetramethyl-5-phenyloctahydrobenzo[c]isoxazole]
8 | 50 to 300 | COc1ccccc1[C@@]1(C)C[C@@H]2[C@@H]([C@@H](C)C1)N(C)OC2(C)C (racemic) [Compound 82, rac-(3aR,5R,7S,7aR)-5-(2-methoxyphenyl)-1,3,3,5,7-pentamethyloctahydrobenzo[c]isoxazole]
9 | 50 to 300 | Cc1cc([C@@]2(C)C[C@@H]3[C@@H]([C@@H](C)C2)N(C)OC3(C)C)cs1 (racemic) [Compound 42, rac-(3aR,5R,7S,7aR)-1,3,3,5,7-pentamethyl-5-(5-methylthiophen-3-yl)octahydrobenzo[c]isoxazole]
10 | < 50 | CC(C)N1OC(C)(C)[C@@H]2C[C@](C)(c3cccc(C#N)c3)C[C@H](C)[C@H]21 (racemic) [Compound 127, rac-3-((3aR,5R,7S,7aR)-1-isopropyl-3,3,5,7-tetramethyloctahydrobenzo[c]isoxazol-5-yl)benzonitrile]
11 | 50 to 300 | C[C@H]1C[C@@](C)(c2cc(F)ccc2F)C[C@@H]2[C@@H]1N(C)OC2(C)C (racemic) [Compound 73, rac-(3aR,5R,7S,7aR)-5-(2,5-difluorophenyl)-1,3,3,5,7-pentamethyloctahydrobenzo[c]isoxazole]
12 | 300 to 1000 | Cc1c(C#N)cccc1C1(C)CC(C)C2C(C1)C(C)(C)ON2C (stereo not shown) [Compound 15, 2-methyl-3-(1,3,3,5,7-pentamethyloctahydrobenzo[c]isoxazol-5-yl)benzonitrile]
13 | 50 to 300 | Cc1ccc(C#N)cc1[C@@]1(C)C[C@@H](C)[C@H]2[C@H](C1)C(C)(C)ON2C (stereo in doubt) [Compound 139, rel-4-methyl-3-((3aS,5S,7R,7aS)-1,3,3,5,7-pentamethyloctahydrobenzo[c]isoxazol-5-yl)benzonitrile]
14 | 50 to 300 | C[C@H]1C[C@@](C)(c2ccc3ccccc3c2)C[C@@H]2[C@@H]1N(C)OC2(C)C (racemic) [Compound 45, rac-(3aR,5R,7S,7aR)-1,3,3,5,7-pentamethyl-5-(naphthalen-2-yl)octahydrobenzo[c]isoxazole]
15 | 50 to 300 | Cc1ccc(C#N)cc1[C@@]1(C)C[C@@H]2[C@@H]([C@@H](C)C1)N(C(C)C)OC2(C)C (racemic) [Compound 126, rac-3-((3aR,5R,7S,7aR)-1-isopropyl-3,3,5,7-tetramethyloctahydrobenzo[c]isoxazol-5-yl)-4-methylbenzonitrile]
16 | 1000 to 35000 | CCC[C@@]1(C)C[C@@H]2[C@@H]([C@@H](C)C1)N(C(C)C)OC2(C)C (racemic) [Compound 61, rac-(3aR,5R,7S,7aR)-1-isopropyl-3,3,5,7-tetramethyl-5-propyloctahydrobenzo[c]isoxazole]
17 | 300 to 1000 | CC(C)=CCC1(C)CC(C)C2C(C1)C(C)(C)ON2C(C)C (stereo not shown) [Compound 10, 1-isopropyl-3,3,5,7-tetramethyl-5-(3-methylbut-2-en-1-yl)octahydrobenzo[c]isoxazole]
18 | 300 to 1000 | Cc1ccc(F)cc1[C@H]1C[C@@H]2[C@@H]([C@@H](C)C1)N(C)OC2(C)C (racemic) [Compound 108, rac-(3aR,5R,7S,7aR)-5-(5-fluoro-2-methylphenyl)-1,3,3,7-tetramethyloctahydrobenzo[c]isoxazole]
19 | 1000 to 35000 | COc1cc(OC)cc([C@@]2(C)C[C@@H]3[C@@H]([C@@H](C)C2)N(C)OC3(C)C)c1 (racemic) [Compound 86, rac-(3aR,5R,7S,7aR)-5-(3,5-dimethoxyphenyl)-1,3,3,5,7-pentamethyloctahydrobenzo[c]isoxazole]
20 | 300 to 1000 | COc1ccc([C@@]2(C)C[C@@H]3[C@@H]([C@@H](C)C2)N(C)OC3(C)C)cc1 (racemic) [Compound 104, rac-(3aR,5R,7S,7aR)-5-(4-methoxyphenyl)-1,3,3,5,7-pentamethyloctahydrobenzo[c]isoxazole]
21 | 1000 to 35000 | COc1ccc([C@@]2(C)C[C@@H]3[C@@H]([C@@H](C)C2)N(C(C)C)OC3(C)C)cc1 (racemic) [Compound 67, rac-(3aR,5R,7S,7aR)-1-isopropyl-5-(4-methoxyphenyl)-3,3,5,7-tetramethyloctahydrobenzo[c]isoxazole]
22 | 300 to 1000 | C[C@H]1C[C@@](C)(c2ccoc2)C[C@@H]2[C@@H]1N(C)OC2(C)C (racemic) [Compound 110, rac-(3aR,5R,7S,7aR)-5-(furan-3-yl)-1,3,3,5,7-pentamethyloctahydrobenzo[c]isoxazole]
23 | 300 to 1000 | Cc1ccc(C)c([C@H]2C[C@@H]3[C@@H]([C@@H](C)C2)N(C)OC3(C)C)c1 (racemic) [Compound 75, rac-(3aR,5R,7S,7aR)-5-(2,5-dimethylphenyl)-1,3,3,7-tetramethyloctahydrobenzo[c]isoxazole]
24 | 50 to 300 | C[C@H]1C[C@@](C)(c2ccc(F)cc2F)C[C@@H]2[C@@H]1N(C)OC2(C)C (racemic) [Compound 70, rac-(3aR,5R,7S,7aR)-5-(2,4-difluorophenyl)-1,3,3,5,7-pentamethyloctahydrobenzo[c]isoxazole]
25 | < 50 | C[C@H]1C[C@@](C)(c2cc(Cl)cc(C#N)c2)C[C@@H]2[C@@H]1N(C)OC2(C)C (racemic) [Compound 129, rac-3-chloro-5-((3aR,5R,7S,7aR)-1,3,3,5,7-pentamethyloctahydrobenzo[c]isoxazol-5-yl)benzonitrile]

Row | Structure (SMILES) | EC50 [nM]
26 | CCC1(C)CC(C)C2C(C1)C(C)(C)ON2C (stereo not shown) [Compound 20, 5-ethyl-1,3,3,5,7-pentamethyloctahydrobenzo[c]isoxazole] | 1000 to 35000
27 | CCCCC[C@@H]1CC[C@@H]2[C@@H](C1)C(C)(C)ON2C (racemic) [Compound 23, rac-(3aR,5R,7aR)-1,3,3-trimethyl-5-pentyloctahydrobenzo[c]isoxazole] | 300 to 1000
28 | CCN1OC(C)(C)[C@@H]2C[C@H](C)C[C@H](C)[C@H]21 (racemic) [Compound 56, rac-(3aR,5R,7S,7aR)-1-ethyl-3,3,5,7-tetramethyloctahydrobenzo[c]isoxazole] | 1000 to 35000
29 | CCC[C@@H]1CC[C@@H]2[C@@H](C1)C(C)(C)ON2CC (racemic) [Compound 25, rac-(3aR,5R,7aR)-1-ethyl-3,3-dimethyl-5-propyloctahydrobenzo[c]isoxazole] | 300 to 1000
30 | CCCC[C@@H]1CC[C@@H]2[C@@H](C1)C(C)(C)ON2C(C)C (racemic) [Compound 29, rac-(3aR,5R,7aR)-5-butyl-1-isopropyl-3,3-dimethyloctahydrobenzo[c]isoxazole] | 1000 to 35000
31 | CC1CC(C)[C@@H]2[C@@H](C1C)C(C)(C)ON2C (mixture of isomers) [Compound 114, rac-(3aR,7aR)-1,3,3,4,5,7-hexamethyloctahydrobenzo[c]isoxazole] | 1000 to 35000
32 | CC1CC(C)[C@H]2[C@@H](C1C)C(C)(C)ON2C (mixture of isomers) [Compound 117, rac-(3aR,7aS)-1,3,3,4,5,7-hexamethyloctahydrobenzo[c]isoxazole] | 1000 to 35000
33 | CC1CC(C)C2C(C1)C1(CCCC1)ON2C (stereo not shown) [Compound 8, 1,5,7-trimethylhexahydro-1H-spiro[benzo[c]isoxazole-3,1′-cyclopentane]] | 1000 to 35000
34 | C[C@H]1C[C@@](C)(c2ccc(Cl)c(C#N)c2)C[C@@H]2[C@@H]1N(C)OC2(C)C (racemic) [Compound 121, rac-2-chloro-5-((3aR,5R,7S,7aR)-1,3,3,5,7-pentamethyloctahydrobenzo[c]isoxazol-5-yl)benzonitrile] | < 50

Reference: patent US20230002334A1, “TRPM8 MODULATORS” (Givaudan SA, priority 2019, published 2023)
